Measurements: patent US20010011128A1, “Hex II tumor-specific promoter and uses thereof” (priority 1996, published 2001)

How the values were obtained:
[1] = MTT cell viability assay, pΔE1sp1B Hex TK transfectants treated with gancyclovir; format: cell-based; conditions: GCV 10 or 25 ug/ml, controls GCV alone or plasmid only
Experimental: Cells in the logarithmic phase of growth were resuspended at a concentration of 2×10^5 cells/ml. 2 ml/well were plated in 6-well plates. Plates were incubated for 24 h at 37° C. in 5% CO2. Subsequently, cells were transfected with the pΔE1sp1B Hex TK plasmid as described above. […] Each condition was done in triplicate. Cells survival was calculated in the treated population as a percentage of controls. Controls are cells transfected with the plasmid alone or treated with the drug alone. MTT assays was performed two days following treatment. The formazan crystals were dissolved in […] (Fisher) and glycine buffer (0.1 M glycine-0.1 M NaCl, pH 10.5). The formazan product formed by viable cells was quantitated by measuring the absorbance at a wavelength of 570 nm.

[2] = system: H661 non-small cell lung carcinoma cells; test: CAT reporter gene assay, Hex II promoter activation (first series); format: cell-based, human; conditions: treatment of the transfectants
Experimental: Transient transfections were performed using lipofectamine according to the manufacturer's recommendations (GIBCO-BRL). Cells were plated the day before transfection to give 60% confluency in 6-well plates. The p1583/+33MUC1.CAT or pHex4557.CAT vectors were transfected along with pSV2lacZ to determine promoter activity. 1 ug of each plasmid were used for each well. All conditions assayed were done in duplicate. The plasmids pRSV.CAT and promoterless pCAT were used as positive and negative controls, respectively. Cells extracts were prepared 48 hours after transfection and β-galactosidase activity was assayed to compensate for variations in transfection efficiency. CAT activity was determined from 75-100 ug of proteins. The reaction was carried out with 0.1 uCi of ^14C-labeled chloramphenicol in a 100 ul reaction at 37° C. for 4 hrs.

[3] = system: HK II promoter in NCI-H661 cells; test: Regulation of HK II promoter (pHexII4557 CAT) by glucose, insulin, glucagon; format: cell-based, human; conditions: NCI-H661 transfected with pHexII4557 CAT; 25 mM glucose, 100 nM insulin, 10 μM glucagon
Experimental: Transient transfections were performed using Lipofect AMINE (Canadian Life Technologies. Burlington, ON, Canada). Seventy to 80% confluent cells were transfected with 1 μg of the reporter plasmid pCAT, pMUCI-1583 CAT, pHexII4557 CAT, or pRSV CAT (Rous sarcoma virus long terminal repeat promoter) (ATCC). One microgram of pSV2-Pgalactosidase (Promega) was cotransfected as an internal control for variations in transfection efficiency in serum-free Dulbecco's modified Eagle's medium (DMEM). The medium was replaced with fresh growth medium after 6 hr. In promoter regulation experiments, the cells were transfected in RPMI 1640 glucose-deficient medium. Six hours after transfection, the medium was replaced with RPMI 1640 glucose-deficient medium supplemented with 100 nM bovine insulin. 25 mM glucose, or 10 μM glucagon (Sigma Aldrich Canada. Oakville. ON, Canada) or a combination of insulin and glucose, supplemented with 1 mM sodium pyruvate and 100 μM glucose. […] The protein concentration of the extracts was measured using the Bradford protein assay from Bio-Rad (Mississauga, ON. Canada) and equal amounts were assayed in the chloramphenicol acetyltransferase (CAT) and β-galactosidase assays, which were carried out as described by the manufacturer (Promega). Percent acetylation was measured using the Bio-Rad Gelscan Phos-phoimager and the Molecular Analyst software program. […]

[4] = system: HK II mRNA in NHBECs; test: Ribonuclease protection assay of HK II mRNA; format: cell-based, human; conditions: 25 mM glucose, 100 nM insulin, 10 μM glucagon, 12 hr
Experimental: For regulation studies, cells were grown to subconfluence in 75-cm^2 flasks, starved in serum-free, glucose-deficient RPMI 1640 medium (Canadian Life Technologies) for 18 hr, and induced in 25 mM glucose, 100 nM insulin, and 10 μM glucagon (Sigma Aldrich Canada) for 12 hr. RNA was extracted from cells using RNAzol (Tel-Test, Friendswood, Tex.) as described by the manufacturer. Contaminating DNA was digested with 5-10 units of DNase I (Pharmacia Biotech) in 10 mM MgCl2, 1 mM dithiothreitol (DTT), […] of RNA Guard (Pharmacia Biotech), 50-80 μl of total RNA at 1 μg/μl for 30 min at 37° C., followed by precipitation of total RNA.
The HK II probe (0.1 fmol) and the human β-actin probe (2 fmol) were simultaneously hybridized to 30 μg of total RNA using the RPA II kit (Ambion, Austin, Tex.) according to the manufacturer recommendations. Probes were prepared by in vitro transcription using the MAXIscript kit (Ambion) and [α-^32P]UTP (6000 Ci/mmol, 40 mCi/ml). HK II (nucleotides 1500 to 1803 of HK II cDNA; GenBank Z-16376) was inserted in the pDP18-T7/T3 vector (Ambion). The template was cut with KpnI at the 5′ end of the insert and transcribed toward that site from the T7 promoter to produce a 430-bp transcript. The HK II-protected fragment is 303 bp. […] Quantitation was performed using the NIH Image 1.67b densitometry software.

| Compound | cell survival less than control cells [1] [%] | effect on Hex II promoter activation [2] | HK II promoter activation, increase over basal [3] | HK II mRNA level relative to basal [4] |
| --- | --- | --- | --- | --- |
| Nc1nc(O)c2ncn(COC(CO)CO)c2n1 [GCV, gancyclovir] | 50 |  |  |  |
| glucagon: regulator of glucose metabolism, physiological inhibitor of Hex II |  | did not inhibit promoter activation | did not lead to significant differences | repressed HK II expression |
| insulin: bovine insulin, regulator of glucose metabolism |  |  | did not lead to significant differences |  |
